# Experimental data as given in PubChem BioAssay AID1963835 (Molecular Pharmacology Branch, DTP, NCI, 2024).
# Tested on: 699152-130-R-J1-PDC complex spheroid viability
# Assay: Anticancer human tumor 699152-130-R-J1-PDC patient-derived pancreatic carcinoma cell line growth inhibition [POLQ]
# Details: for IC50: curve of first compound; for viability, T/C: stronger effect = lower value
# Outline: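 Complex spheroid viability model combining PDC tumour cells with endothelial (HUVEC) and MSC stromal cells. Novobiocin, ART-558 or RP6685 were tested singly and in combination with standard and investigational anticancer drugs. Each was titrated in half-log steps from near clinical Cmax, or from 10 microM where Cmax was unknown.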
# [1] = second compound 0.0316 µM, first compound 0.00316 µM
# [2] = second compound 0.0316 µM, first compound 0.01 µM
# [3] = second compound 0.0316 µM, first compound 0.0316 µM
# [4] = second compound 0.0316 µM, first compound 0.1 µM
# [5] = second compound 0.0316 µM, first compound 0.316 µM
# [6] = second compound 0.0316 µM, first compound 1 µM
# [7] = second compound 0.1 µM, first compound 0.00316 µM
# [8] = second compound 0.1 µM, first compound 0.01 µM
# [9] = second compound 0.1 µM, first compound 0.0316 µM
# [10] = second compound 0.1 µM, first compound 0.1 µM
# [11] = second compound 0.1 µM, first compound 0.316 µM
# [12] = second compound 0.1 µM, first compound 1 µM
# [13] = second compound 0.316 µM, first compound 0.00316 µM
# [14] = second compound 0.316 µM, first compound 0.01 µM
# [15] = second compound 0.316 µM, first compound 0.0316 µM
# [16] = second compound 0.316 µM, first compound 0.1 µM
# [17] = second compound 0.316 µM, first compound 0.316 µM
# [18] = second compound 0.316 µM, first compound 1 µM
# [19] = second compound 1 µM, first compound 0.00316 µM
# [20] = second compound 1 µM, first compound 0.01 µM
# [21] = second compound 1 µM, first compound 0.0316 µM
# [22] = second compound 1 µM, first compound 0.1 µM
# [23] = second compound 1 µM, first compound 0.316 µM
# [24] = second compound 1 µM, first compound 1 µM
# [25] = second compound 3.16 µM, first compound 0.00316 µM
# [26] = second compound 3.16 µM, first compound 0.01 µM
# [27] = second compound 3.16 µM, first compound 0.0316 µM
# [28] = second compound 3.16 µM, first compound 0.1 µM
# [29] = second compound 3.16 µM, first compound 0.316 µM
# [30] = second compound 3.16 µM, first compound 1 µM
# [31] = second compound 10 µM, first compound 0.00316 µM
# [32] = second compound 10 µM, first compound 0.01 µM
# [33] = second compound 10 µM, first compound 0.0316 µM
# [34] = second compound 10 µM, first compound 0.1 µM
# [35] = second compound 10 µM, first compound 0.316 µM
# [36] = second compound 10 µM, first compound 1 µM
# 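Further: spheroids exposed to agents for 7 days before viability reading.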
# 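Wherever viability, T/C is given: percent of DMSO vehicle control viability so 100% = vehicle and 0% = no viable signal.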
structure (smiles),measurement,setting,value
C=CCn1c(=O)c2cnc(Nc3ccc(N4CCN(C)CC4)cc3)nc2n1-c1cccc(C(C)(C)O)n1 + Nc1ccc(C#CCN(C(=O)Cc2ncc(C(F)(F)F)cc2C(F)(F)F)c2ccc(F)cc2)nn1,IC50,second compound 0.0316 µM,> 1000 nM
same,IC50,second compound 0.1 µM,> 1000 nM
same,IC50,second compound 0.316 µM,> 1000 nM
same,IC50,second compound 1 µM,> 1000 nM
same,IC50,second compound 3.16 µM,> 1000 nM
same,IC50,second compound 10 µM,> 1000 nM
same,"viability, T/C",[1],94.2%
same,"viability, T/C",[2],100%
same,"viability, T/C",[3],103%
same,"viability, T/C",[4],93.2%
same,"viability, T/C",[5],96.1%
same,"viability, T/C",[6],78.2%
same,"viability, T/C",[7],105%
same,"viability, T/C",[8],98%
same,"viability, T/C",[9],98.1%
same,"viability, T/C",[10],99.1%
same,"viability, T/C",[11],89%
same,"viability, T/C",[12],68.8%
same,"viability, T/C",[13],104%
same,"viability, T/C",[14],113%
same,"viability, T/C",[15],108%
same,"viability, T/C",[16],106%
same,"viability, T/C",[17],91%
same,"viability, T/C",[18],71.9%
same,"viability, T/C",[19],97.9%
same,"viability, T/C",[20],94.7%
same,"viability, T/C",[21],98.5%
same,"viability, T/C",[22],105%
same,"viability, T/C",[23],87.3%
same,"viability, T/C",[24],74.7%
same,"viability, T/C",[25],107%
same,"viability, T/C",[26],115%
same,"viability, T/C",[27],100%
same,"viability, T/C",[28],112%
same,"viability, T/C",[29],101%
same,"viability, T/C",[30],82.8%
same,"viability, T/C",[31],122%
same,"viability, T/C",[32],126%
same,"viability, T/C",[33],109%
same,"viability, T/C",[34],104%
same,"viability, T/C",[35],104%
same,"viability, T/C",[36],81.7%
Cn1ncnc1[C@H]1c2n[nH]c(=O)c3cc(F)cc(c23)N[C@@H]1c1ccc(F)cc1 + Nc1ccc(C#CCN(C(=O)Cc2ncc(C(F)(F)F)cc2C(F)(F)F)c2ccc(F)cc2)nn1,IC50,second compound 0.0316 µM,> 100 nM
same,IC50,second compound 0.1 µM,> 100 nM
same,IC50,second compound 0.316 µM,> 100 nM
same,IC50,second compound 1 µM,> 100 nM
same,IC50,second compound 3.16 µM,> 100 nM
same,IC50,second compound 10 µM,> 100 nM
same,"viability, T/C","second compound 0.0316 µM, first compound 0.000316 µM",102%
same,"viability, T/C","second compound 0.0316 µM, first compound 0.001 µM",86.8%
same,"viability, T/C",[1],89.6%
same,"viability, T/C",[2],97.1%
same,"viability, T/C",[3],87%
same,"viability, T/C",[4],82.2%
same,"viability, T/C","second compound 0.1 µM, first compound 0.000316 µM",106%
same,"viability, T/C","second compound 0.1 µM, first compound 0.001 µM",89.1%
same,"viability, T/C",[7],87.5%
same,"viability, T/C",[8],101%
same,"viability, T/C",[9],96%
same,"viability, T/C",[10],82.8%
same,"viability, T/C","second compound 0.316 µM, first compound 0.000316 µM",102%
same,"viability, T/C","second compound 0.316 µM, first compound 0.001 µM",91.6%
same,"viability, T/C",[13],103%
same,"viability, T/C",[14],85.4%
same,"viability, T/C",[15],92.6%
same,"viability, T/C",[16],77.5%
same,"viability, T/C","second compound 1 µM, first compound 0.000316 µM",102%
same,"viability, T/C","second compound 1 µM, first compound 0.001 µM",102%
same,"viability, T/C",[19],89.4%
same,"viability, T/C",[20],98.8%
same,"viability, T/C",[21],104%
same,"viability, T/C",[22],76.5%
same,"viability, T/C","second compound 3.16 µM, first compound 0.000316 µM",90.7%
same,"viability, T/C","second compound 3.16 µM, first compound 0.001 µM",98%
same,"viability, T/C",[25],105%
same,"viability, T/C",[26],94.7%
same,"viability, T/C",[27],91.7%
same,"viability, T/C",[28],89.5%
same,"viability, T/C","second compound 10 µM, first compound 0.000316 µM",103%
same,"viability, T/C","second compound 10 µM, first compound 0.001 µM",106%
same,"viability, T/C",[31],108%
same,"viability, T/C",[32],95.2%
same,"viability, T/C",[33],101%
same,"viability, T/C",[34],99.6%
O=c1[nH]cc(F)c(=O)[nH]1 + COC1C(OC(N)=O)C(O)C(Oc2ccc3c(O)c(NC(=O)c4ccc(O)c(CC=C(C)C)c4)c(=O)oc3c2C)OC1(C)C,IC50,second compound 0.0316 µM,> 10000 nM
same,IC50,second compound 0.1 µM,> 10000 nM
same,IC50,second compound 0.316 µM,> 10000 nM
same,IC50,second compound 1 µM,> 10000 nM
same,IC50,second compound 3.16 µM,> 10000 nM
same,IC50,second compound 10 µM,> 10000 nM
same,"viability, T/C",[3],101%
same,"viability, T/C",[4],92.8%
same,"viability, T/C",[5],108%
same,"viability, T/C",[6],108%
same,"viability, T/C","second compound 0.0316 µM, first compound 3.16 µM",91.3%
same,"viability, T/C","second compound 0.0316 µM, first compound 10 µM",75.4%
same,"viability, T/C",[9],109%
same,"viability, T/C",[10],113%
same,"viability, T/C",[11],88.5%
same,"viability, T/C",[12],97.2%
same,"viability, T/C","second compound 0.1 µM, first compound 3.16 µM",93.6%
same,"viability, T/C","second compound 0.1 µM, first compound 10 µM",68.7%
same,"viability, T/C",[15],92.6%
same,"viability, T/C",[16],99.6%
same,"viability, T/C",[17],99.8%
same,"viability, T/C",[18],95.4%
same,"viability, T/C","second compound 0.316 µM, first compound 3.16 µM",86%
same,"viability, T/C","second compound 0.316 µM, first compound 10 µM",65.9%
same,"viability, T/C",[21],104%
same,"viability, T/C",[22],101%
same,"viability, T/C",[23],91%
same,"viability, T/C",[24],105%
same,"viability, T/C","second compound 1 µM, first compound 3.16 µM",98.5%
same,"viability, T/C","second compound 1 µM, first compound 10 µM",76.8%
same,"viability, T/C",[27],102%
same,"viability, T/C",[28],93.2%
same,"viability, T/C",[29],91.2%
same,"viability, T/C",[30],88.4%
same,"viability, T/C","second compound 3.16 µM, first compound 3.16 µM",92.5%
same,"viability, T/C","second compound 3.16 µM, first compound 10 µM",72.8%
same,"viability, T/C",[33],106%
same,"viability, T/C",[34],108%
same,"viability, T/C",[35],101%
same,"viability, T/C",[36],95.9%
same,"viability, T/C","second compound 10 µM, first compound 3.16 µM",88.2%
same,"viability, T/C","second compound 10 µM, first compound 10 µM",73%
